Assay results reported in the supplement of paper PMC10331698.
± gives the standard deviation of the averaged measurements.

Assays:
Assay in all cases: level (log10 ratio to DMSO vehicle control); higher = higher biomarker level / cell amount than vehicle control
[1] = compound: OCC(F)(F)C(F)(F)C(F)(F)C(F)(F)C(F)(F)C(F)(F)CO [1H,1H,8H,8H-Perfluorooctane-1,8-diol] (in DMSO)
Experimental: (§1)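 BioMAP Diversity Plus panel of 12 human primary cell co-culture systems (3C, 4H, LPS, SAg, BT, BF4T, BE3C, CASM3C, HDF3CGF, KF3CT, MyoF, Mphg). Compounds were added 1 h before stimulation and left for 24 h (MyoF 48 h; BT 72 h for soluble read-outs or 6 d for IgG). Biomarkers were read by ELISA, cytotoxicity by SRB, PBMC viability and proliferation by Alamar Blue. Each well value was divided by the mean of 8 DMSO control wells on the same plate and log10 transformed; duplicate blinded samples were tested at 4 concentrations.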

[2] = compound: NS(=O)(=O)C(F)(F)C(F)(F)C(F)(F)C(F)(F)C(F)(F)C(F)(F)C(F)(F)C(F)(F)F [Perfluorooctanesulfonamide] (in DMSO)
Experimental: as §1

[3] = compound: O=C(O)C(F)(F)C(F)(F)C(F)(F)C(F)(F)C(F)(F)C(F)(F)C(F)(F)C(F)(F)F [Perfluorononanoic acid] (in DMSO)
Experimental: as §1

[4] = compound: O=C(O)C(F)(OC(F)(F)C(F)(OC(F)(F)C(F)(OC(F)(F)C(F)(F)C(F)(F)F)C(F)(F)F)C(F)(F)F)C(F)(F)F [Perfluoro-(2,5,8-trimethyl-3,6,9-trioxadodecanoic)acid] (in DMSO)
Experimental: as §1

[5] = compound: C=C(C)C(=O)OCCC(F)(F)C(F)(F)C(F)(F)C(F)(F)C(F)(F)C(F)(F)C(F)(F)C(F)(F)F [8:2 Fluorotelomer methacrylate] (in DMSO)
Experimental: as §1

[6] = compound: OCC(F)(F)C(F)(F)C(F)(F)C(F)F [1H,1H,5H-Perfluoropentanol] (in DMSO)
Experimental: as §1

[7] = compound: O=C(O)C(F)(F)C(F)(F)C(F)(F)OC(F)(F)F [Perfluoro(4-methoxybutanoic) acid] (in DMSO)
Experimental: as §1

[8] = compound: O=C(O)C(F)(F)OC(F)(F)C(F)(F)OC(F)(F)C(F)(F)OC(F)(F)C(F)(F)C(F)(F)C(F)(F)F [Perfluoro-3,6,9-trioxatridecanoic acid] (in DMSO); settings: 6700 nM
Experimental: as §1

Test System | level (log10) ([1]; 6700 nM) | level (log10) ([1]; 20000 nM) | level (log10) ([1]; 60000 nM) | level (log10) ([2]; 6700 nM) | level (log10) ([2]; 20000 nM) | level (log10) ([3]; 6700 nM) | level (log10) ([3]; 20000 nM) | level (log10) ([4]; 1100 nM) | level (log10) ([4]; 3300 nM) | level (log10) ([4]; 10000 nM) | level (log10) ([5]; 6700 nM) | level (log10) ([5]; 20000 nM) | level (log10) ([6]; 6700 nM) | level (log10) ([6]; 20000 nM) | level (log10) ([6]; 60000 nM) | level (log10) ([7]; 6700 nM) | level (log10) ([7]; 20000 nM) | level (log10) ([7]; 60000 nM) | level (log10) [8]
MyoF:MMP-1 | -0.02 ± 0.031 | -0.0145 ± 0.022 | 0.028 ± 0.12 | -0.038 ± 0.013 | 0.0955 ± 0.04 | -0.025 ± 0.031 | 0.0665 ± 0.0021 | -0.048 ± 0.0014 | -0.0475 ± 0.012 | -0.03 ± 0.027 | -0.015 ± 0.02 | -0.0075 ± 0.0021 | -0.054 ± 0.028 | -0.01 ± 0.052 | 0.093 ± 0.13 | -0.0165 ± 0.0078 | -0.0245 ± 0.026 | 0.0205 ± 0.06 | 0.0205 ± 0.029
MyoF:PAI-I | -0.0015 ± 0.0064 | -0.004 ± 0.0028 | 0.0005 ± 0.011 | 0.0135 ± 0.019 | 0.006 ± 0.0071 | -0.01 ± 0.028 | 0.0105 ± 0.03 | 0.005 ± 0.021 | 0.006 ± 0.0085 | 0.0085 ± 0.016 | 0.0005 ± 0.0078 | -0.013 ± 0.0071 | -0.0265 ± 0.0078 | -0.018 ± 0.031 | -0.0045 ± 0.0021 | -0.003 ± 0.0042 | -0.0045 ± 0.0064 | 0.0005 ± 0.00071 | -0.0885 ± 0.046
MyoF:SRB | -0.0095 ± 0.012 | -0.0145 ± 0.0064 | -0.0305 ± 0.0021 | -0.0135 ± 0.0035 | -0.136 ± 0.0021 | 0.0025 ± 0.0064 | -0.0155 ± 0.0021 | -0.0065 ± 0.005 | 0.008 ± 0.018 | 0.0085 ± 0.015 | 0.0025 ± 0.0064 | -0.0015 ± 0.005 | -0.0025 ± 0.0078 | -0.004 ± 0.016 | 0.002 ± 0.0071 | -0.0075 ± 0.0035 | -0.008 ± 0.0028 | -0.0005 ± 0.00071 | -0.0815 ± 0.0064
MyoF:TIMP-1 | -0.0125 ± 0.042 | 0.0285 ± 0.042 | 0.0735 ± 0.035 | -0.007 ± 0.027 | -0.098 ± 0.018 | 0.0025 ± 0.03 | -0.034 ± 0.033 | 0.007 ± 0.0014 | 0.0155 ± 0.013 | 0.022 ± 0.024 | 0.0115 ± 0.08 | 0.0185 ± 0.026 | 0.0015 ± 0.026 | 0.004 ± 0.054 | 0.039 ± 0.027 | -0.0155 ± 0.057 | -0.0185 ± 0.074 | -0.0135 ± 0.071 | -0.112 ± 0.0085
MyoF:alpha-SM Actin | 0.0075 ± 0.005 | 0.0035 ± 0.011 | -0.005 ± 0.0028 | -0.0355 ± 0.037 | -0.63 ± 0.1 | -0.0165 ± 0.028 | -0.0645 ± 0.042 | -0.002 ± 0.027 | -0.0105 ± 0.00071 | 0.002 ± 0.062 | -0.009 ± 0.081 | 0.0025 ± 0.079 | -0.04 ± 0.059 | -0.0045 ± 0.018 | 0 ± 0.017 | 0.025 ± 0.028 | -0.0045 ± 0.028 | -0.002 ± 0.0057 | -0.24 ± 0.025
MyoF:bFGF | 0.009 ± 0.014 | 0.0145 ± 0.0021 | 0.014 ± 0.014 | 0.0115 ± 0.00071 | -0.0145 ± 0.0021 | -0.0025 ± 0.025 | 0.015 ± 0.014 | -0.014 ± 0.0028 | -0.0045 ± 0.0035 | 0.0075 ± 0.005 | -0.0105 ± 0.00071 | 0.011 ± 0.014 | -0.02 ± 0.016 | 0.0115 ± 0.026 | 0.0135 ± 0.012 | 0.001 ± 0.0042 | 0.0015 ± 0.012 | 0.015 ± 0.0042 | -0.059 ± 0.03
